According to patent US12558326B2, “Method for treating epilepsy” (Xenon Pharmaceuticals Inc., priority 2018, dated 2026):
“And” between values parts separate entries of the source, which are not always exact repeats. Identical values can stand only once.

Key:
DBA/2 mice = experiment: Audiogenic seizure test in DBA/2 mice; type: in vivo, mouse; settings: for Clonic Convulsion Incidence / Tonic Extension Incidence / Wild Running Incidence / Clonic Convulsion Latency / Tonic Extension Latency / Wild Running Latency / Audiogenic Response Score: 60 min prior; for Clonic Convulsion Incidence / Tonic Extension Incidence / Wild Running Incidence / Audiogenic Response Score: n=10; for Clonic Convulsion Latency / Tonic Extension Latency / Wild Running Latency / Audiogenic Response Score: mean ± SEM; for Clonic Convulsion Latency / Tonic Extension Latency / Wild Running Latency: maximum 60 s; for Audiogenic Response Score: score 0-4; for change in number of mice showing clonic convulsions / change in number of mice showing tonic convulsions / increase in latency to clonic convulsions / increase in latency to tonic convulsions / reduction of overall audiogenic response score: versus vehicle controls; for anticonvulsant activity in the audiogenic seizure test: (R/S)-fenfluramine at 15 and 30 mg/kg, (R)-fenfluramine at 30 mg/kg
Method: DBA/2 is a widely used inbred strain of mouse susceptible to audiogenic seizures due to the asp2 mutation. […] The objective of this study was to evaluate the anticonvulsant activity of (R/S)-fenfluramine and to compare it to (R)-fenfluramine in the DBA/2 mouse.
The method follows that described by Dilrmuiller et al., Neuroreport 4(6):683-686. Mice (DBA/2, 3-4 weeks old) were individually transferred (at 3-5 minute intervals) from the preparation room into an adjacent experimental room and placed in a Plexiglas™ jar (Diameter=40 cm; Height=35 cm) mounted with an electric bell (110-120 dB). Upon activating the bell, the occurrences and latencies to wild running fits, clonic and tonic seizures were measured. The number of deaths was also recorded. An audiogenic response score was assigned to each mouse as 0 (no seizure), 1 (wild running), 2 (clonic convulsion), 3 (tonic extension), or 4 (death). The bell was activated until a tonic seizure occurred or for a maximum of 60 seconds. Ten (10) mice were studied per group. The test was performed blind. All test compounds were dissolved in 0.9% saline (vehicle) and were administered by intraperitoneal (IP) injection at a dose volume of 10 mL/kg. Vehicle alone, (R/S)-fenfluramine (15 or 30 mg/kg) or (R)-fenfluramine (30 mg/kg) were administered 60 minutes prior to seizure induction. The positive reference compound (valproate; 180 mg/kg) was administered 30 minutes prior to seizure induction.

[1] = Brain and plasma distribution after the 6 Hz assay (UHPLC-ESI-MS/MS); type: in vivo, mouse; settings: 20 mg/kg IP, total concentration, sampled immediately after 6 Hz assay (one hour post dose)
Method: Pharmacological distribution and bioanalysis. Immediately following characterization of seizure behaviors in the 6 Hz assay, animals were humanely sacrificed and brain and plasma samples were collected for analysis of the distribution of the administered compounds to these tissue compartments.
Brain sample homogenization. Pre-weighed whole mouse brains were thawed and 1 mL of deionized water and 1 mL of acetonitrile were added to each sample vial containing brain tissue. The samples were homogenized using a hand-held Omni™ TH homogenizer (Omni International, Kennesaw, GA, USA) until a uniform slurry was obtained. 1 mL aliquots of the slurry were transferred to clean 1.5 mL plastic Eppendorf tubes and the tubes were centrifuged at 13,000 rpm (15,871×g) for 20 minutes. The supernatant was collected and stored in clean labelled plastic Eppendorf vials at −80° C.
Mouse plasma and brain homogenate sample preparation. Mouse brain homogenates and mouse plasma samples, as well as calibration standards and QC samples prepared from control (“blank”) untreated mouse plasma, were extracted by protein precipitation. Briefly, 50 μL of each brain homogenate and mouse plasma sample (as well as each calibration standard, QC sample and blank mouse plasma sample) was mixed with 50 μL of internal standard solution [a 2,500 ng/mL solution of (S)-5-((1-benzylpyrrolidin-3-yl)(methyl)amino)-6-methyl-N-(thiazol-4-yl)pyridine-2-sulfonamide in deionized water/acetonitrile (1:1 v/v)], followed by addition of 50 μL of 6% (v/v) phosphoric acid in water. This was followed by the addition of 200 μL of acetonitrile. The samples were vortexed for 30 seconds and then centrifuged for 20 min at 13,000 rpm (15,871×g). The supernatants were further diluted four-fold with acetonitrile:water (1:1 v/v) and transferred to a 96-well plate prior to analysis. Calibration and QC samples were prepared in blank K2EDTA mouse plasma in the concentration range from 2.3 ng/mL to 4800 ng/mL with QC samples, including low QC (14 ng/mL), mid QC (225 ng/mL), and high QC (3600 ng/mL).
UHPLC-ESI-MS/MS analysis. Samples were then analyzed by ultra-high pressure liquid chromatography/electrospray ionization tandem mass spectroscopy (UHPLC-ESI MS/MS) using a Sciex™ TQ-5500 (AB Sciex™ LP, Concord, ON, Canada) mass spectrometer equipped with a Shimadzu Nexera™ UHPLC pump, column compartment and auto-sampler (Shimadzu Scientific Instruments, Inc., Columbia, MD, USA), using a binary gradient elution starting with 80% water (A)/20% acetonitrile (B), both solvents containing 0.1% formic acid. After 0.6 minutes, mobile phase B was increased linearly to 100% to 1 minute and elution was maintained at 100% mobile phase B until 1.5 minutes, and then allowed to re-equilibrate at the initial ration of 80% mobile phase A and 20% mobile phase B for a total run time of 2.5 minutes at a flow rate of 0.4 mL/min. The column used was ACE Excel™ 2 C18-PFP (2.1 mm i.d.×[…], 2 μm particle size)(Advanced Chromatography Technologies Ltd, Aberdeen, Scotland). The analytes and the internal standard were ionized by electrospray in the positive ion mode and detected by multiple reaction monitoring (MRM) using the transitions listed in Table 1.

Row | Compound | Clonic Convulsion Incidence (DBA/2 mice; 30 mg/kg IP) | Tonic Extension Incidence (DBA/2 mice; 30 mg/kg IP) | Wild Running Incidence (DBA/2 mice; 30 mg/kg IP) | Clonic Convulsion Latency (DBA/2 mice; 30 mg/kg IP) | Tonic Extension Latency (DBA/2 mice; 30 mg/kg IP) | Wild Running Latency (DBA/2 mice; 30 mg/kg IP) | Audiogenic Response Score (DBA/2 mice; 30 mg/kg IP) | change in number of mice showing clonic convulsions (DBA/2 mice; 30 mg/kg IP) | change in number of mice showing tonic convulsions (DBA/2 mice; 30 mg/kg IP) | increase in latency to clonic convulsions (DBA/2 mice; 30 mg/kg IP) | increase in latency to tonic convulsions (DBA/2 mice; 30 mg/kg IP) | reduction of overall audiogenic response score (DBA/2 mice; 30 mg/kg IP) | anticonvulsant activity in the audiogenic seizure test (DBA/2 mice) | Brain concentration [1] | Plasma concentration [1] | further results
1 | CCNC(C)Cc1cccc(C(F)(F)F)c1 (racemic) [(rac)-fenfluramine, (R/S)—N-ethyl-1-(3-(trifluoromethyl)phenyl)propan-2-amine] | 10% | 0% | 80% | 55.3 ± 4.8 s | 60.0 ± 0.0 s | 16.6 ± 7.4 s | 0.9 ± 0.18 | −90% | −100% | +853% | +641% | 72% | clear anticonvulsant activity | 146.5 μM and 33870 ng/g | 10.74 μM and 2484 ng/g | Clonic Convulsion Incidence (DBA/2 mice; 15 mg/kg IP): 60%; Tonic Extension Incidence (DBA/2 mice; 15 mg/kg IP): 0%; Wild Running Incidence (DBA/2 mice; 15 mg/kg IP): 100%; Clonic Convulsion Latency (DBA/2 mice; 15 mg/kg IP): 31.4 ± 7.8 s; Tonic Extension Latency (DBA/2 mice; 15 mg/kg IP): 60.0 ± 0.0 s; Wild Running Latency (DBA/2 mice; 15 mg/kg IP): 4.0 ± 0.7 s; Audiogenic Response Score (DBA/2 mice; 15 mg/kg IP): 1.6 ± 0.16; change in number of mice showing clonic convulsions (DBA/2 mice; 15 mg/kg IP): −40%; change in number of mice showing tonic convulsions (DBA/2 mice; 15 mg/kg IP): −100%; increase in latency to clonic convulsions (DBA/2 mice; 15 mg/kg IP): +441%; increase in latency to tonic convulsions (DBA/2 mice; 15 mg/kg IP): +641%; reduction of overall audiogenic response score (DBA/2 mice; 15 mg/kg IP): 50%
2 | CCN[C@H](C)Cc1cccc(C(F)(F)F)c1 [(R)-fenfluramine, (R)—N-ethyl-1-(3-(trifluoromethyl)phenyl)propan-2-amine] | 60% | 0% | 100% | 31.9 ± 7.7 s | 60.0 ± 0.0 s | 5.0 ± 1.4 s | 1.6 ± 0.16 | −40% | −100% | +450% | +641% | 50% | clear anticonvulsant activity | 193.7 μM and 44797 ng/g | 15.02 μM and 3474 ng/g | –
